In patent US20260284166A1, “NOVEL TUMOR ANTIGENS FOR MELANOMA AND USES THEREOF” (UNIVERSITÉ DE MONTRÉAL, priority 2023, published 2026):
Entries after “also recorded” stand apart in the source; their conditions may differ.

System: CD8+ T cells from healthy donor PBMCs
Test: Functional expansion of specific T cells (FEST) assay
Type: cell-based, human
Settings: in vitro stimulation of healthy donor T cells with 1 μg/mL peptide, harvested day 20; TCR Vβ CDR3 sequencing of CD8+ cells
Text: aeTSA selection for Immunogenicity assay. Melanoma aeTSAs to be tested in T cell-based immunogenicity assays were selected based on the following criteria: 1) complete loss of expression (RPHM) on-therapy in at least one responder from the Riaz et al.^8 cohort capable to present the respective aeTSAs (at least one HLA allele with rank elution <2% in NetMHCpan4.1b^5), 2) elevated mean expression in TCGA-SKCM, 3) the HLA allotype presenting the aeTSA (HLA-A*02:01 or HLA-B*68:01 shared by the melanoma samples and PBMCs donors), 4) the aeTSA biotype (25% canonical, 75% non-canonical), 5) novel MAP status.
T cells were cultured as previously described^9, with minor modifications. Briefly, on day 0, thawed PBMCs from D36 (Miltenyi Biotec) were T cell-enriched using the Human Pan T cell isolation kit (Miltenyi Biotec). T cells were resuspended at 2×10^6/mL in AIM V media supplemented with 50 μg/mL gentamicin (ThermoFisher Scientific) and 1% HEPES. The T cell-negative fraction was irradiated at 30 Gγ, washed, and resuspended at 2×10^6/mL in AIM V media supplemented with 50 μg/mL gentamicin and 1% HEPES. 2.5 ml per well of both T cells and irradiated T cell-depleted cells were added to a 12-well plate, along with each peptide (GLS Biochem) (1 μg/mL final concentration) or without peptide. Cells were cultured for 10 days at 37° C., 5% CO2. On day 3 and 7, half the culture media was replaced with fresh culture media containing 100 IU/mL IL-2, 50 ng/mL IL-7, and 50 ng/mL IL-15 (day 3) and 200 IU/mL IL-2, 50 ng/mL IL-7, and 50 ng/mL IL-15 (day 7). On day 10, thawed PBMCs from the same donor were used to generate a new batch of T cell-depleted cells. These cells were irradiated at 30 Gγ and loaded with […] of relevant peptide or without peptide during 2 h at 37° C. These cells were washed and added to cultures at a 1:1 T cell:non-T cell ratio. […] On day 20, cells were harvested to perform FEST assays.
For FEST assays, CD8^+ cells were further isolated using the Human CD8^+ T Cell Isolation Kit (Miltenyi Biotec). […]

Sequence	Amino acid sequences of the CDR3 of the TCRβ chain of the clonotypes expanded
AAAGVSSTK [SEQ ID NO: 73]	CASSPTNTYEQYF; also recorded: CASHPAGADMNTEAFF; also recorded: CASSLAGRETQYF; also recorded: CASSVWGEPYNEQFF; also recorded: CASSRTDSYEQYF; also recorded: CASSLQGANGYTF
GVDDLVFRR [SEQ ID NO: 64]	CASSPDPEGGEQYF; also recorded: CASSLQGHGYTF; also recorded: CASNVARTGGDISGDYEQYF; also recorded: CASSLGLAGSYEQYF; also recorded: CASSDSSYNSPLHF
HTLPALSRR [SEQ ID NO: 66]	CASSFQGLNTEAFF (SEQ ID NO: 1103); also recorded: CASSPGQGNEKLFF (SEQ ID NO: 1104); also recorded: CASSLGSGYEQYF (SEQ ID NO: 1105); also recorded: CASSLGLYNEQFF (SEQ ID NO: 1106); also recorded: CASSPGTDYNEQFF (SEQ ID NO: 1107); also recorded: CATRPGAIRGYTF (SEQ ID NO: 1108); also recorded: CASSLIGGADTEAFF (SEQ ID NO: 1109)
